Results from ChEMBL document CHEMBL1932998, “Design, synthesis and evaluation of polar head group containing 2-keto-oxazole inhibitors of FAAH” (Bioorg Med Chem, 2012).
Active and inactive are the calls of the source. The calls are words filed in the database; no cut-off is given here.

Legend:
[1] = biological target: T1, Fatty-acid amide hydrolase 1 (Rattus norvegicus) (UniProt P97612); assay: (§1) Inhibition of Sprague-Dawley rat brain microsome FAAH assessed as reduction in 4-pyren-1-ylbutanoic acid release after 60 mins by reverse phase HPLC-based fluorescence method
T1 sequence (whole entry): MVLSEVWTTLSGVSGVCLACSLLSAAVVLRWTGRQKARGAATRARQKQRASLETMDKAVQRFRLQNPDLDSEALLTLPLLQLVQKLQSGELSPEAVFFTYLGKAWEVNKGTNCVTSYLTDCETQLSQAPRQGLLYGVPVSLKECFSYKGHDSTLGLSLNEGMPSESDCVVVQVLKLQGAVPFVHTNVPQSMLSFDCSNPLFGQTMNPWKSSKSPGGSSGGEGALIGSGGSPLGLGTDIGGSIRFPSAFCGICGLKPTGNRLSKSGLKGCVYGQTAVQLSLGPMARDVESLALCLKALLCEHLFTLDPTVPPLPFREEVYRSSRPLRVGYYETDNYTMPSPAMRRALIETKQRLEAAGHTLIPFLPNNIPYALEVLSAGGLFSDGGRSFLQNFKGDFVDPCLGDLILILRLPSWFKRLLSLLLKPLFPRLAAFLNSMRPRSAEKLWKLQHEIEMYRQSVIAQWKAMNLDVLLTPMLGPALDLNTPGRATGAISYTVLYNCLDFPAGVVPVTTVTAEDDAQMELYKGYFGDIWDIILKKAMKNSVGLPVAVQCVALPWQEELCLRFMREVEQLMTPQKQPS

[2] = biological target: T1, Fatty-acid amide hydrolase 1 (Rattus norvegicus); assay: Inhibition of Sprague-Dawley rat brain FAAH assessed as residual activity at 10 uM after 60 mins by reverse phase HPLC-based fluorescence method
[3] = biological target: T2, Fatty-acid amide hydrolase 1 (Rattus norvegicus, UniProt P97612); assay: as §1
T2 sequence (P97612 whole entry): T1 sequence (whole entry)

[4] = biological target: Acyl-protein thioesterase 1 (Homo sapiens) (UniProt O75608); assay: Inhibition of APT1 at 50 uM
[5] = Inhibition of cPLA2alpha at 1 uM
[6] = biological target: Acyl-protein thioesterase 2 (Homo sapiens) (UniProt O95372); assay: Inhibition of APT2 at 50 uM
Sequence of Acyl-protein thioesterase 2 (Homo sapiens) (O95372 whole entry): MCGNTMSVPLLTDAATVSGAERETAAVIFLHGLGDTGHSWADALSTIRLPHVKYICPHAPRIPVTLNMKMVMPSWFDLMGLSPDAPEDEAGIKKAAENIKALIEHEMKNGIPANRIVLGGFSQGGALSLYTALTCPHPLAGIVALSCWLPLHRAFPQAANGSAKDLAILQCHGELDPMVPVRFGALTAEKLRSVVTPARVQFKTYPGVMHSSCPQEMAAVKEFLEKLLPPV

Sequence of Acyl-protein thioesterase 1 (Homo sapiens) (O75608 whole entry): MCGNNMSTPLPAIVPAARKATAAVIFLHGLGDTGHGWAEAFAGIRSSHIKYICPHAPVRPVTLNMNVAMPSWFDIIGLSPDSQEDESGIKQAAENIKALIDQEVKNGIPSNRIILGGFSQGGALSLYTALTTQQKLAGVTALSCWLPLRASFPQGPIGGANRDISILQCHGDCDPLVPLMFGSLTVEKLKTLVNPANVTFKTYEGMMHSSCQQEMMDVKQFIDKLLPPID

Compound: CCCCCCCCCCCC(=O)c1ncc(CCCCCS(=O)(=O)CCC[N+](C)(C)C)o1
- inhibition [1]: inactive
- Activity [2]: 57%

Compound: CCCCCCCCCCCC(=O)c1ncc(CCSCCC[N+](C)(C)C)o1
- inhibition [1]: inactive
- Activity [2]: 78%

Compound: CCCCCCCC(=O)c1ncc(CCS(=O)(=O)CCC[N+](C)(C)C)o1
- Activity [2]: 61%

Compound: CCCCCCCCCCCC(=O)c1ncc(CCCCCCS(=O)(=O)CCCN(C)C)o1
- inhibition [1]: inactive
- Activity [2]: 51%

Compound: CCCCCCCCCCCC(=O)c1ncc(CCCCS(=O)(=O)CCC[N+](C)(C)C)o1
- inhibition [1]: inactive
- Activity [2]: 49%

Compound: CCCCCCCCCCCC(=O)c1ncc(CCCCCCSCCC[N+](C)(C)C)o1
- inhibition [1]: inactive
- Activity [2]: 71%

Compound: CCCCCCCC(=O)c1ncc(CCCCCSCCCN(C)C)o1
- Activity [2]: 78%

Compound: CCCCCCCCCCCC(=O)c1ncc(CCCCCCSCCCN(C)C)o1
- inhibition [1]: inactive
- Activity [2]: 72%

Compound: CCCCCCCCCCCC(=O)c1ncc(CCCCSCCCN(C)C)o1
- inhibition [1]: inactive
- Activity [2]: 49%

Compound: CCCCCCCC(=O)c1ncc(CCCCCS(=O)(=O)CCCN(C)C)o1
- Activity [2]: 73%

Compound: CCCCCCCC(=O)c1ncc(CCSCCCN(C)C)o1
- Activity [2]: 34%

Compound: CCCCCCCC(=O)c1ncc(CCCCSCCC[N+](C)(C)C)o1
- Activity [2]: 68%

Compound: CCCCCCCCCCCC(=O)c1ncc(CCS(=O)(=O)CCC[N+](C)(C)C)o1
- IC50 [3]: 1.4 µM
- Activity [2]: 11%

Compound: CCCCCCCCCCCC(=O)c1ncc(CCS(=O)(=O)CCCN(C)C)o1
- IC50 [3]: 0.37 µM
- Activity [2]: 3%

Compound: CCCCCCCCCCCC(=O)c1ncc(CCCS(=O)(=O)CCCN(C)C)o1
- inhibition [4]: inactive
- IC50 [3]: 0.29 µM
- Activity [2]: 2%
- inhibition [5]: inactive
- inhibition [6]: inactive

Compound: CCCCCCCC(=O)c1ncc(CCCCCCSCCC[N+](C)(C)C)o1
- Activity [2]: 82%

Compound: CCCCCCCC(=O)c1ncc(CCCS(=O)(=O)CCC[N+](C)(C)C)o1
- Activity [2]: 53%

Compound: CCCCCCCC(=O)c1ncc(CCCS(=O)(=O)CCCN(C)C)o1
- IC50 [3]: 2.4 µM
- Activity [2]: 22%

Compound: CCCCCCCC(=O)c1ncc(CCCCCS(=O)(=O)CCC[N+](C)(C)C)o1
- Activity [2]: 70%

Compound: CCCCCCCC(=O)c1ncc(CCSCCC[N+](C)(C)C)o1
- Activity [2]: inactive

Compound: CCCCCCCC(=O)c1ncc(CCCCCCSCCCN(C)C)o1
- Activity [2]: 78%

Compound: CCCCCCCCCCCC(=O)c1ncc(CCCCSCCC[N+](C)(C)C)o1
- inhibition [1]: inactive
- Activity [2]: 78%

Compound: CCCCCCCC(=O)c1ncc(CCCCCCS(=O)(=O)CCCN(C)C)o1
- Activity [2]: 62%

Compound: CCCCCCCCCCCC(=O)c1ncc(CCCSCCCN(C)C)o1
- inhibition [1]: inactive
- Activity [2]: 40%

Compound: CCCCCCCCCCCC(=O)c1ncc(CCCCCCS(=O)(=O)CCC[N+](C)(C)C)o1
- inhibition [1]: inactive
- Activity [2]: 31%

Compound: CCCCCCCCCCCC(=O)c1ncc(CCCCCS(=O)(=O)CCCN(C)C)o1
- inhibition [1]: inactive
- Activity [2]: 53%

Compound: CCCCCCCCCCCC(=O)c1ncc(CCCCS(=O)(=O)CCCN(C)C)o1
- inhibition [1]: inactive
- Activity [2]: 32%

Compound: CCCCCCCCCCCC(=O)c1ncc(CCSCCCN(C)C)o1
- inhibition [1]: inactive
- Activity [2]: 27%

Compound: CCCCCCCCCCCC(=O)c1ncc(CCCCCSCCCN(C)C)o1
- inhibition [1]: inactive
- Activity [2]: 64%

Compound: CCCCCCCC(=O)c1ncc(CCCCS(=O)(=O)CCCN(C)C)o1
- Activity [2]: 59%

Compound: CCCCCCCCCCCC(=O)c1ncc(CCCS(=O)(=O)CCC[N+](C)(C)C)o1
- IC50 [3]: 1.9 µM
- Activity [2]: 13%

Compound: CCCCCCCC(=O)c1ncc(CCCCS(=O)(=O)CCC[N+](C)(C)C)o1
- Activity [2]: 83%

Compound: Cc1nc(-c2ccccc2)c(-c2ccccc2)n1CCCCCCNC(=O)Oc1ccccc1
- IC50 [3]: 0.34 µM

Compound: CCCCCCCC(=O)c1ncc(CCS(=O)(=O)CCCN(C)C)o1
- IC50 [3]: 2 µM
- Activity [2]: 23%

Compound: CCCCCCCC(=O)c1ncc(CCCSCCCN(C)C)o1
- Activity [2]: 64%

Compound: CCCCCCCC(=O)c1ncc(CCCCSCCCN(C)C)o1
- Activity [2]: 48%

Compound: O=C(CCCCCc1ccccc1)c1nc2ncccc2o1
- IC50 [3]: 0.0029 µM
